Reference: paper PMC6445159, “Resorcinol-, catechol- and saligenin-based bronchodilating β2-agonists as inhibitors of human cholinesterase activity” (Journal of Enzyme Inhibition and Medicinal Chemistry, 2017)
Where two headings read alike, the source gives them in different places.

How the values were obtained:
[1] = target: T1, human AChE (Homo sapiens, UniProt P22303); experiment: biochemical; format: biochemical
Method: (§1) ATCh was used as a substrate for AChE and PTCh as a substrate for BChE. The reaction mixture contained DTNB (final concentration 0.3 mM), buffer, enzyme suspension, inhibitor (0.5–10 mM) and ATCh or PTCh (0.025–1.0 mM). Inhibition of enzymes was determined by measuring the decrease in enzyme activity in the presence of inhibitors.
(§2) The dissociation constant for an enzyme–inhibitor complex K(I) was evaluated from the impact of substrate concentrations [S] on the degree of inhibition applying the Hunter–Downs equation[17]^,[39]: Ki,app=vi/v0-vi·[I]=K(I)+K(I)/K(S)·[S] where Ki,app is an apparent enzyme-reversible inhibitor complex dissociation constant obtained at a given substrate concentration [S] in the presence of inhibitor concentration [I] and calculated from the enzyme activities v0 and vi measured without inhibitor and in the presence of inhibitor concentration [I], respectively. K(I) is the enzyme-reversible inhibitor complex dissociation constant and can stand for a complex formed at the catalytic site or for a complex formed at the peripheral site of the enzyme. K(S) is the enzyme-substrate dissociation constant that could be approximated to the Michaelis constant or to the enzyme-substrate dissociation constant when two molecules of the substrate are bound to the enzyme.

[2] = target: T2, usual BChE (Homo sapiens, UniProt P06276); experiment: biochemical; format: biochemical; settings: for inhibition potency higher than other compounds of the same group: usual BChE, versus other resorcinol-, catechol- or saligenin-based compounds
T2 construct: Human native serum was used as a source of BChE; from tissue; host or cells: human serum (donor, IMROH Zagreb)
T2 sequence (P06276 29-602): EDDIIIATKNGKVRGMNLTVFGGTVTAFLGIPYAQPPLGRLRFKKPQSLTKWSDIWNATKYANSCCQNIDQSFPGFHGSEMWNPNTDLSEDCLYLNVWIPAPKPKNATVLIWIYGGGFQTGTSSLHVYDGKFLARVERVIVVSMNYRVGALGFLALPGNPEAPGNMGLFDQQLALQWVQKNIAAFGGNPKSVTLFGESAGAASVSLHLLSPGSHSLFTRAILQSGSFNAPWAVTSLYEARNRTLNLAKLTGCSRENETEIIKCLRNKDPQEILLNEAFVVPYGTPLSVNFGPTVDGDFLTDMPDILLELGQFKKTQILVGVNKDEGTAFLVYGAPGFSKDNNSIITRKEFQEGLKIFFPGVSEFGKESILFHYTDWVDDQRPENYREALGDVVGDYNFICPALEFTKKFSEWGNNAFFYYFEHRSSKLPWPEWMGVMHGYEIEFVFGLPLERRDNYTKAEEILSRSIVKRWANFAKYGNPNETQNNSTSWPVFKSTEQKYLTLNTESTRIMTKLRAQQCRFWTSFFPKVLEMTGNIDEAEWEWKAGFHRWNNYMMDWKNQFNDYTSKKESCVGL
Method: as §1, §2

[3] = target: T3, atypical BChE (Homo sapiens, UniProt P06276, D98G); experiment: Reversible inhibition of atypical BChE (Ellman method, Hunter–Downs evaluation); format: biochemical
T3 construct: Human native serum was used as a source of BChE; from tissue; host or cells: human serum
T3 sequence (P06276 29-602 D98G): as the sequence (P06276 29-602) above, with D70G counted along it
Method: as §1, §2

[4] = target: T4, fluoride-resistant BChE (Homo sapiens, UniProt P06276); settings: substrate PTCh, K(I) ± SE
T4 sequence (P06276 29-602, change not shown): as the sequence (P06276 29-602) above
Method: as §1, §2

[5] = target: T1, human AChE; settings: K(I) ± SE; cited from earlier work
[6] = target: T2, usual BChE; settings: K(I) ± SE, cited from earlier work
[7] = target: T3, atypical BChE; settings: K(I) ± SE; cited from earlier work
[8] = target: T4, fluoride-resistant BChE; settings: K(I) ± SE; cited from earlier work
[9] = system: β-adrenoceptor; settings: more potent than (S)-enantiomer; cited from earlier work
[10] = enantiomers, substrate ATCh, pH 7.4, 25 °C, K(I) ± SE, read-out: K(I)
[11] = enantiomers, substrate PTCh, pH 7.4, 25 °C, K(I) ± SE, read-out: K(I)
[12] = racemate, 0.1 M phosphate buffer pH 7.4, 25 °C

T1 sequence (P22303 32-614): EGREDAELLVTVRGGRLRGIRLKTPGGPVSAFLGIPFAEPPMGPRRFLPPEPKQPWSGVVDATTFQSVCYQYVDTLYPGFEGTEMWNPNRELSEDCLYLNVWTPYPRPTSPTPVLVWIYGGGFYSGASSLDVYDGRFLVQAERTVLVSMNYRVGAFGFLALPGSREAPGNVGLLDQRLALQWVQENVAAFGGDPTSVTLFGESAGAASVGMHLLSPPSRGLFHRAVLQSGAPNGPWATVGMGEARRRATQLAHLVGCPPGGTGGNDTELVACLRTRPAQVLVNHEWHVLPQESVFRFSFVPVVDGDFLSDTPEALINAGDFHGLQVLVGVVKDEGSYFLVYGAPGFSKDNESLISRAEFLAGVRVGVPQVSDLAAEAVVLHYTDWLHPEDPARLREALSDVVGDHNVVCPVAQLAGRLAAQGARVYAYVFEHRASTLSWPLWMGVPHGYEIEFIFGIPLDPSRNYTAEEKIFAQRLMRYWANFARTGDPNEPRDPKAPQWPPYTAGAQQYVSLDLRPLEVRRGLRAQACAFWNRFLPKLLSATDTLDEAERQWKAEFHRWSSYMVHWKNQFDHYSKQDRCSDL

Work on OCc1cc([C@@H](O)CNCCCCCCOCCCCc2ccccc2)ccc1O [(R)-salmeterol] yielded a Ki [1, 10] of 33 ± 3 µM, a Ki [2, 11] of 15 ± 1 µM and a Ki [3, 11] of 71 ± 19 µM. For the same molecule, the Ki ([4]; enantiomers, pH 7.4, 25 °C) was 31 ± 4 µM.

Work on (R)-epinephrine yielded a Ki [1, 10] of 3200 ± 400 µM, a Ki [2, 11] of 4700 ± 1800 µM and a Ki [3, 11] of 12000 ± 2000 µM.

Work on CC(Cc1ccc(O)cc1)NCC(O)c1cc(O)cc(O)c1 (centres unmarked) [Fenoterol] yielded a Ki [1] of 860 ± 50 µM, a Ki [2] of 24 ± 1 µM and a Ki [3] of 630 ± 30 µM. It also gave a Ki [4, 12] of 61 ± 17 µM.

CCC(NC(C)C)C(O)c1ccc(O)c(O)c1 (centres unmarked) [Isoetharine] showed a higher inhibition potency ([1]; AChE, compared to isoproterenol) of 12 fold, a Ki ([1]; read-out: K(I)) of 210 ± 40 µM and a Ki ([2]; read-out: K(I)) of 31 ± 3 µM. The “inhibition potency higher than other compounds of the same group” value [2] was at most 120 times, the Ki [3] was 260 ± 50 µM and the Ki [4, 12] was 86 ± 4 µM.

For CNC[C@H](O)c1ccc(O)c(O)c1 [Epinephrine], the Ki [1] was 6400 ± 1100 µM, the Ki [2] was 3700 ± 1200 µM and the “selectivity: inhibition of usual BChE more potent than AChE (ratio of K(I) constants)” value [2] was “lowest selectivity”. It also gave a Ki ([3]; read-out: K(I)) of 1600 ± 1000 µM and a Ki [4, 12] of 3800 ± 1500 µM.

For CC(C)NC[C@H](O)c1ccc(O)c(O)c1 [(R)-isoproterenol], the Ki [1, 10] was 2000 ± 500 µM, the Ki [2, 11] was 810 ± 130 µM and the Ki [3, 11] was 1400 ± 100 µM. It also gave a Ki ([4]; enantiomers, pH 7.4, 25 °C) of 1400 ± 200 µM.

In the case of CC(C)NCC(O)c1ccc(O)c(O)c1 (centres unmarked) [Isoproterenol], the “increase in inhibition potency” value ([1]; AChE, compared to epinephrine) is listed as 2 fold, the Ki [5] is listed as 2500 ± 1000 µM and the Ki ([6]; read-out: K(I)) is listed as 470 ± 210 µM. For the same molecule, the Ki [7] was 1600 ± 300 µM and the Ki [8] was 990 ± 120 µM.

In the case of CC(C)(C)NCC(O)c1cc(O)cc(O)c1 (centres unmarked) [Terbutaline], the Ki ([1]; read-out: K(I)) is listed as 4800 ± 200 µM, the “selectivity: inhibition of usual BChE more potent than AChE (ratio of K(I) constants)” value [2] is listed as 27 times and the Ki [6] is listed as 180 ± 150 µM. The Ki [7] was 3300 ± 700 µM and the Ki [8] was 300 ± 320 µM.

For OCc1cc([C@H](O)CNCCCCCCOCCCCc2ccccc2)ccc1O [(S)-salmeterol], the Ki [1, 10] was 28 ± 6 µM, the Ki [2, 11] was 15 ± 1 µM and the Ki [3, 11] was 67 ± 13 µM. For the same molecule, the Ki ([4]; enantiomers, pH 7.4, 25 °C) was 20 ± 3 µM.

With CC(C)(C)NC[C@@H](O)c1ccc(O)c(CO)c1 [(S)-salbutamol] the Ki [1, 10] was 1800 ± 100 µM, the Ki [2, 11] was 310 ± 50 µM and the Ki [3, 11] was 1500 ± 200 µM. For the same molecule, the Ki ([4]; enantiomers, pH 7.4, 25 °C) was 300 ± 40 µM.

For CC(C)(C)NC[C@H](O)c1cc(O)cc(O)c1 [(R)-terbutaline], the “stereoselectivity: preference for (R) enantiomer over racemate” value ([1]; AChE, K(I) racemate versus (R) enantiomer) was 2 fold, the Ki [1, 10] was 2000 ± 300 µM and the Ki [2, 11] was 110 ± 30 µM. The “stereoselectivity: preference for (R) enantiomer over racemate” value ([3]; atypical BChE, K(I) racemate versus (R) enantiomer) was 3 fold, the Ki [3, 11] was 1000 ± 100 µM and the Ki ([4]; enantiomers, pH 7.4, 25 °C) was 220 ± 50 µM.

In the case of CC(C)(C)NCC(O)c1ccc(O)c(CO)c1 (centres unmarked) [Salbutamol], the Ki [1] is reported as 2000 ± 200 µM, the higher inhibition potency ([1]; AChE, compared to terbutaline) is reported as “two times” and the Ki [2] is reported as 71 ± 6 µM. For the same molecule, the “selectivity: inhibition of usual BChE more potent than AChE (ratio of K(I) constants)” value [2] was 28 times, the Ki [3] was 1400 ± 200 µM and the Ki [4, 12] was 190 ± 20 µM.

CC(C)(C)NC[C@H](O)c1ccc(O)c(CO)c1 [(R)-salbutamol] showed a Ki [1, 10] of 4000 ± 300 µM, a Ki [2, 11] of 190 ± 40 µM and a Ki [3, 11] of 2300 ± 200 µM. For the same molecule, the Ki ([4]; enantiomers, pH 7.4, 25 °C) was 300 ± 60 µM and the “potency as β-adrenoceptor agonist relative to (S)-enantiomer” value [9] was “approximately 80 times”.

In the case of OCc1cc(C(O)CNCCCCCCOCCCCc2ccccc2)ccc1O (centres unmarked) [Salmeterol], the Ki [1] is reported as 30 ± 2 µM, the “increase in inhibition potency” value ([1]; AChE, salmeterol versus salbutamol) is reported as 67 fold and the Ki [2] is reported as 13 ± 1 µM. The “selectivity: inhibition of usual BChE more potent than AChE (ratio of K(I) constants)” value [2] was “two times”, the “inhibition potency higher than other compounds of the same group” value [2] was at most 5.5 times and the Ki [3] was 86 ± 18 µM. It also gave a Ki [4, 12] of 9.8 ± 2.3 µM.

In the case of CC(C)NCC(O)c1cc(O)cc(O)c1 (centres unmarked) [Metaproterenol], the Ki [6] is given as 550 ± 110 µM, the Ki [7] is given as 6100 ± 700 µM and the Ki [8] is given as 870 ± 180 µM.
